# According to PubChem BioAssay (NCI):
#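 96-well plates; 48 h exposure; 5 concentrations. Endpoints by linear interpolation between flanking doses. Not reached: highest tested concentration assigned. Here, GI50 denotes the concentration required for 50% inhibition of growth. TGI: concentration producing complete growth inhibition.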
# How the values were obtained:
# Test in all cases: DTP human tumour cell line panel, 48 h
# MALME-3M melanoma = system: MALME-3M melanoma
# HL-60(TB) leukemia = system: HL-60(TB) leukemia
# TK-10 renal = system: TK-10 renal
# CCRF-CEM leukemia = system: CCRF-CEM leukemia
# HCC-2998 colon = system: HCC-2998 colon
# OVCAR-8 ovarian = system: OVCAR-8 ovarian
# HCT-15 colon = system: HCT-15 colon
# NCI-H460 lung = system: NCI-H460 lung
# CAKI-1 renal = system: CAKI-1 renal
# HOP-62 NSCLC = system: HOP-62 NSCLC
# SN12C renal = system: SN12C renal
# MDA-MB-468 breast = system: MDA-MB-468 breast
# EKVX NSCLC = system: EKVX NSCLC
# IGROV1 ovarian = system: IGROV1 ovarian
# SW-620 colon = system: SW-620 colon
# MDA-MB-435 = system: MDA-MB-435
# RXF 393 renal = system: RXF 393 renal
# ACHN renal = system: ACHN renal
# UACC-62 melanoma = system: UACC-62 melanoma
# A549 NSCLC = system: A549 NSCLC
# SF-539 CNS = system: SF-539 CNS
# HOP-92 NSCLC = system: HOP-92 NSCLC
# UACC-257 melanoma = system: UACC-257 melanoma
# SNB-75 CNS = system: SNB-75 CNS
# SNB-19 CNS = system: SNB-19 CNS
# MOLT-4 leukemia = system: MOLT-4 leukemia
# NCI-H23 lung = system: NCI-H23 lung
# SK-MEL-28 melanoma = system: SK-MEL-28 melanoma
# OVCAR-5 ovarian = system: OVCAR-5 ovarian
smiles,measurement,setting,value
CN(C)CCOc1ccc(C(=O)C2[C@H](c3ccc(Cl)cc3)[C@@H](c3ccccc3)NC23C(=O)Nc2ccc(Br)cc23)cc1 (stereo partly drawn),GI50,MALME-3M melanoma,2.43 µM
same,TGI,MALME-3M melanoma,4.81 µM
same,GI50,HL-60(TB) leukemia,2.89 µM
same,TGI,HL-60(TB) leukemia,6.75 µM
same,GI50,TK-10 renal,2.67 µM
same,TGI,TK-10 renal,5.61 µM
same,GI50,CCRF-CEM leukemia,3.09 µM
same,TGI,CCRF-CEM leukemia,7.86 µM
same,GI50,HCC-2998 colon,2.22 µM
same,TGI,HCC-2998 colon,4.39 µM
same,GI50,OVCAR-8 ovarian,2.58 µM
same,TGI,OVCAR-8 ovarian,5.01 µM
same,GI50,HCT-15 colon,2.6 µM
same,TGI,HCT-15 colon,4.95 µM
same,GI50,NCI-H460 lung,2.71 µM
same,TGI,NCI-H460 lung,5.22 µM
same,GI50,CAKI-1 renal,2.38 µM
same,TGI,CAKI-1 renal,4.54 µM
same,GI50,HOP-62 NSCLC,2.69 µM
same,TGI,HOP-62 NSCLC,5.56 µM
same,GI50,SN12C renal,2.35 µM
same,TGI,SN12C renal,4.55 µM
same,GI50,MDA-MB-468 breast,2.4 µM
same,TGI,MDA-MB-468 breast,4.68 µM
same,GI50,EKVX NSCLC,2.24 µM
same,TGI,EKVX NSCLC,4.4 µM
same,GI50,IGROV1 ovarian,2.51 µM
same,TGI,IGROV1 ovarian,4.79 µM
same,GI50,SW-620 colon,2.63 µM
same,TGI,SW-620 colon,5.17 µM
same,GI50,MDA-MB-435,2.59 µM
same,TGI,MDA-MB-435,4.84 µM
same,GI50,RXF 393 renal,1.65 µM
same,TGI,RXF 393 renal,3.61 µM
same,GI50,ACHN renal,2.55 µM
same,TGI,ACHN renal,4.77 µM
same,GI50,UACC-62 melanoma,2.5 µM
same,TGI,UACC-62 melanoma,4.74 µM
same,GI50,A549 NSCLC,2.51 µM
same,TGI,A549 NSCLC,4.85 µM
same,GI50,SF-539 CNS,2.64 µM
same,TGI,SF-539 CNS,4.89 µM
same,GI50,HOP-92 NSCLC,1.74 µM
same,TGI,HOP-92 NSCLC,3.8 µM
same,GI50,UACC-257 melanoma,2.53 µM
same,TGI,UACC-257 melanoma,4.94 µM
same,GI50,SNB-75 CNS,1.7 µM
same,TGI,SNB-75 CNS,5.81 µM
same,GI50,SNB-19 CNS,2.63 µM
same,TGI,SNB-19 CNS,4.94 µM
same,GI50,MOLT-4 leukemia,2.58 µM
same,TGI,MOLT-4 leukemia,6.53 µM
same,GI50,NCI-H23 lung,2.62 µM
same,TGI,NCI-H23 lung,5.03 µM
same,GI50,SK-MEL-28 melanoma,2.65 µM
same,TGI,SK-MEL-28 melanoma,4.88 µM
same,GI50,OVCAR-5 ovarian,2.23 µM
same,TGI,OVCAR-5 ovarian,4.34 µM
